Laboratory results reported in patent US6274588A, “4-phenyl-pyrimidine derivatives” (Hoffmann-La Roche Inc., priority 1999, dated 2001).

Molecular target: T1, human NK1 receptors (Homo sapiens, UniProt P25103)
T1 construct: expressed in transfected cells; host or cells: CHO cells (Semliki virus expression system), membrane suspension
Assay: NK1 receptor binding assay, displacement of [3H]substance P
Settings: human NK1 receptors in CHO cells (Semliki virus expression system), [3H]substance P 0.6 nM, 60 min at room temperature; for Ki: read-out: affinity to the NK-1 receptor, given as pKi (converted)
Experimental: The affinity of test compounds for the NK1 receptor was evaluated at human NK1 receptors in CHO cells infected with the human NK1 receptor (using the Semliki virus expression system) and radiolabelled with [^3 H]substance P (final concentration 0.6 nM). Binding assays were performed in HEPES buffer (50 mM, pH 7.4) containing BSA (0.04 %) leupeptin (8 μg/ml), MnCl2 (3 mM) and phosphoramidon (2 μM). Binding assays consisted of 250 μl of membrane suspension (1.25×10^5 cells/assay tube), […] of buffer of displacing agent and 125 μl of [^3 H]substance P. Displacement curves were determined with at least seven concentrations of the compound. The assay tubes were incubated for 60 min at room temperature after which time the tube contents were rapidly filtered under vacuum through GF/C filters presoaked for 60 min with PEI (0.3%) with 2×2 ml washed of HEPES buffer (50 mM, pH 7.4). The radioactivity retained on the filters was measured by scintillation counting. All assays were performed in triplicate in at least 2 separate experiments.

T1 sequence (P25103 whole entry): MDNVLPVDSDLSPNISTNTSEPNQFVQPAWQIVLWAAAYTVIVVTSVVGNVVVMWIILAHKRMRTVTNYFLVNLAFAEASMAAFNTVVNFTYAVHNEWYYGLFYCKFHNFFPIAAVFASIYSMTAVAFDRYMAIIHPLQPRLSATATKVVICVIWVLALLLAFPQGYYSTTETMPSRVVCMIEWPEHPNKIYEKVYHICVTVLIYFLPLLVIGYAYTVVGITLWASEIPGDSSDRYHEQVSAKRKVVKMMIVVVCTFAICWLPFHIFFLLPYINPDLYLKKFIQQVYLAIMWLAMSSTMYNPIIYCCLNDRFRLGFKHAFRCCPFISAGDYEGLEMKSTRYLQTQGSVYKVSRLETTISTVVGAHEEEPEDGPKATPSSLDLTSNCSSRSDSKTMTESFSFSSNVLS

Row | Compound | Ki | affinity to the NK-1 receptor, given as pKi
1 | CN(C)CCOc1ncc(C(=O)N(C)Cc2cc(C(F)(F)F)cc(C(F)(F)F)c2)c(-c2ccccc2Cl)n1 [Example 52, 4-(2-Chloro-phenyl)-2-(2-dimethylamino-ethoxy)-pyrimidine-5-carboxylic Acid (3,5-bis-trifluoromethyl-benzyl)-methyl-amide] | 3.55 nM | 
2 | 4-(2-Chloro-phenyl)-2-(3-dimethylamino-ethoxy)-pyrimidine-5-carboxylic acid(3,5-bis-trifluoromethyl-benzyl)-methyl-amide |  | 8.11

Second part, the compound after the results:

Row | Ki | affinity to the NK-1 receptor, given as pKi | Compound
3 | 0.724 nM |  | Cc1cc(F)ccc1-c1nc(N2CCNCC2)ncc1C(=O)N(C)Cc1cc(C(F)(F)F)cc(C(F)(F)F)c1 [Example 84, 4-(4-Fluor-2-methyl-phenyl)-2-piperazin-1-yl-pyrimidine-5-carboxylic Acid (3,5-bis-trifluoromethyl-benzyl)-methyl-amide]
4 | 1.74 nM |  | CN(C)CCCOc1ncc(C(=O)N(C)Cc2cc(C(F)(F)F)cc(C(F)(F)F)c2)c(-c2ccccc2Cl)n1 [Example 53, 4-(2-Chloro-phenyl)-2-(3-dimethylamino-propoxy)-pyrimidine-5-carboxylic Acid (3,5-bis-trifluoromethyl-benzyl)-methyl-amide]
5 | 2.88 nM |  | CN1CCN(c2ncc(C(=O)N(C)Cc3cc(C(F)(F)F)cc(C(F)(F)F)c3)c(-c3cccc4ccccc34)n2)CC1 [Example 88, 2-(4-Methyl-piperazin-1-yl)-4-naphthalen-1-yl-pyrimidine-5-carboxylic Acid (3,5-bis-trifluoromethyl-benzyl)-methyl-amide]
